Measured values published in patent publication US20230346784A1 (priority 2020, published 2023).
Converted amounts (≈) assume the structure as drawn. “Also recorded” adds a separate entry of the source.

Key:
[1] = system: APH; experiment: APH inhibition / IC50 threshold used with simulated concentrations (FIG. 11); parameters: species or system human; details: dotted line in FIG. 11, serum ALXN2040 concentration
[2] = system: C5b-9 deposition on TF1PIGAnull cells; format: cell-based, human
[3] = system: TF1PIGAnull cells; format: cell-based, human
[4] = system: C3c deposition on TF1PIGAnull cells; format: cell-based, human
[5] = system: SARS-CoV-2 spike proteins binding to TF1PIGAnull cells; experiment: Flow cytometry of coronavirus protein binding to TF1PIGAnull cells (heparan sulfate blockade, sialidase treatment); parameters: species or system human; details: sulfate sodium salt; for binding of S1 subunit to TF1PIGAnull cells: 5 μg/mL His-tagged S1 co-incubated with 2 mg/mL heparan sulfate solution; for binding of S2 subunit to TF1PIGAnull cells: 5 μg/mL His-tagged S2 co-incubated with 2 mg/mL heparan sulfate solution

Compound: CC(=O)c1nn(CC(=O)N2C[C@H](F)C[C@H]2C(=O)Nc2cccc(Br)n2)c2ccc(-c3cnc(C)nc3)cc12 [Compound 1, danicopan]
- IC50 value [1]: 0.235 µg/mL (≈ 0.405 µM)

Compound: CC(=O)c1nn(CC(=O)N2[C@H]3C[C@]4(C[C@@H]24)Cn2cc(nn2)COCc2ccc(Br)nc2NC3=O)c2ccc(-c3cnc(C)nc3)cc12 [Compound 2]
- C5b-9 deposition induced by S1 and S2 [2]: inhibit
- S1-induced C5b-9 deposition [2]: blocking; also recorded: completely blocked
- S2-induced C5b-9 deposition [2]: blocking
- cell killing in the mHam assay induced by S1 and S2 [3]: inhibited; also recorded: prevented cell death
- C3c deposition induced by S1 and S2 [4]: more potent in blocking C3c deposition; also recorded: inhibit
- S1-induced C3c deposition [4]: blocking; also recorded: completely blocked
- S2-induced C3c deposition [4]: blocking

Compound: Heparan sulfate sodium salt
- binding of S1 subunit to TF1PIGAnull cells ([5]; listed as HS): significantly blocked
- binding of S1 subunit to TF1PIGAnull cells [5]: completely blocked
- binding of S2 subunit to TF1PIGAnull cells ([5]; listed as HS): significantly blocked
- binding of S2 subunit to TF1PIGAnull cells [5]: completely blocked
